{
  "source": "patent US9447100B2",
  "about": "“Substituted pyrazolo[1,5-A] pyrimidines as calcium receptor modulating agents” (Takeda Pharmaceutical Company Limited, priority 2002, dated 2016)",
  "note": "Where a name gives a salt, the structure may show the parent alone.",
  "data": [
    {"units": {"melting point": "°C"}, "values": [
      {"smiles": "Cc1nn2c(c1C(=O)OC1C(C)(C)[C@H]3CC[C@]1(C)C3)NC(c1ccccc1)CC2(C)C", "note": "(stereo partly drawn) (as salt: HCl) [Example 1141, (1R,4S)-1,3,3-trimethylbicyclo[2.2.1]hept-2-yl 2,7,7-trimethyl-5-phenyl-4,5,6,7-tetrahydropyrazolo[1,5-a]pyrimidine-3-carboxylate]", "melting point": "149 to 150"},
      {"smiles": "Cc1nn2c(c1C(=O)O)NC(c1ccccc1)CC2(C)C", "note": "(single isomer, unassigned; (+)) [Example 1020, (+)-2,7,7-trimethyl-5-phenyl-4,5,6,7-tetrahydropyrazolo[1,5-a]pyrimidine-3-carboxylic acid]", "melting point": "190 to 192"},
      {"smiles": "Cc1nn2c(c1C(=O)O)NC(c1ccccc1F)CC2(C)C", "note": "(single isomer, unassigned; (+)) [Example 1024, (+)-5-(2-fluorophenyl)-2,7,7-trimethyl-4,5,6,7-tetrahydropyrazolo[1,5-a]pyrimidine-3-carboxylic acid]", "melting point": "150 to 151"},
      {"smiles": "CCC(C#N)NC(=O)c1cnn2c1N[C@H](c1ccccc1)C[C@@H]2C(F)(F)F", "note": "(stereo in doubt) [Example 283, N-(1-cyanopropyl)-5-phenyl-7-(trifluoromethyl)-4,5,6,7-tetrahydropyrazolo[1,5-a]pyrimidine-3-carboxamide]", "melting point": "180 to 181"},
      {"smiles": "CCC(C#N)NC(=O)c1cnn2c1N[C@H](c1ccccc1)C[C@@H]2C(F)(F)F", "note": "(stereo in doubt) [Example 284, N-(1-cyanopropyl)-5-phenyl-7-(trifluoromethyl)-4,5,6,7-tetrahydropyrazolo[1,5-a]pyrimidine-3-carboxamide]", "melting point": "201 to 202"},
      {"smiles": "O=C(CNC(=O)c1cnn2c1N[C@H](c1ccccc1)C[C@@H]2C(F)(F)F)c1cc2ccccc2o1", "note": "(stereo in doubt) [Example 285, N-(2-(1-benzofuran-2-yl)-2-oxoethyl)-5-phenyl-7-(trifluoromethyl)-4,5,6,7-tetrahydropyrazolo[1,5-a]pyrimidine-3-carboxamide]", "melting point": "244 to 245"},
      {"smiles": "O=C(NCC(=O)c1cccc2ccccc12)c1cnn2c1N[C@H](c1ccccc1)C[C@@H]2C(F)(F)F", "note": "(stereo in doubt) [Example 286, N-(2-(1-naphthyl)-2-oxoethyl)-5-phenyl-7-(trifluoromethyl)-4,5,6,7-tetrahydropyrazolo[1,5-a]pyrimidine-3-carboxamide]", "melting point": "141 to 142"},
      {"smiles": "O=C(CNC(=O)c1cnn2c1N[C@H](c1ccccc1)C[C@@H]2C(F)(F)F)c1ccccc1Cl", "note": "(stereo in doubt) [Example 289, N-(2-(2-chlorophenyl)-2-oxoethyl)-5-phenyl-7-(trifluoromethyl)-4,5,6,7-tetrahydropyrazolo[1,5-a]pyrimidine-3-carboxamide]", "melting point": "154 to 155"},
      {"smiles": "CC(NC(=O)c1cnn2c1N[C@H](c1ccccc1)C[C@@H]2C(F)(F)F)C(=O)c1ccccc1", "note": "(stereo in doubt) [Example 290, N-(1-methyl-2-oxo-2-phenylethyl)-5-phenyl-7-(trifluoromethyl)-4,5,6,7-tetrahydropyrazolo[1,5-a]pyrimidine-3-carboxamide]", "melting point": "271 to 272"},
      {"smiles": "CC(NC(=O)c1cnn2c1N[C@H](c1ccccc1)C[C@@H]2C(F)(F)F)C(=O)c1ccccc1", "note": "(stereo in doubt) [Example 291, N-(1-methyl-2-oxo-2-phenylethyl)-5-phenyl-7-(trifluoromethyl)-4,5,6,7-tetrahydropyrazolo[1,5-a]pyrimidine-3-carboxamide]", "melting point": "178 to 179"},
      {"smiles": "COC(=O)C1(NC(=O)c2cnn3c2N[C@H](c2ccccc2)C[C@@H]3C(F)(F)F)CCCCC1", "note": "(stereo in doubt) [Example 367, methyl 1-(((5-phenyl-7-(trifluoromethyl)-4,5,6,7-tetrahydropyrazolo[1,5-a]pyrimidin-3-yl)carbonyl)amino)cyclohexane carboxylate]", "melting point": "213 to 214"}
    ]}
  ]
}
